Data from US20050191290A1, “Means and methods for manipulating hypersensitivity-like responses” (priority 2002, published 2005).
Peptide text beside a SMILES is read from it.

System: healthy male volunteers
Assay: Phase 1 single rising dose clinical safety study
Format: in vivo, human
Excerpt: Primary objective: to study the safety and tolerability of F991 at increasing single dose levels in healthy male volunteers
Design: This study was a double-blind, placebo-controlled, single rising dose study in two alternating panels of eight healthy male volunteers. In each panel, two volunteers received placebo throughout the study and the other six volunteers received three increasing single doses of F991.
Safety assessments: vital signs; adverse events (including eyesight); ECG four times each period; clinical laboratory: on admission for each period
Panel I: period 1: 0.08 mg/kg F991 or placebo iv infusion • period 2: 0.8 mg/kg F991 or placebo iv infusion • period 3: 3.2 mg/kg F991 or placebo iv infusion
Panel II: period 1: 0.32 mg/kg F991 or placebo iv infusion • period 2: 1.6 mg/kg F991 or placebo iv infusion • period 3: 6.4 mg/kg F991 or placebo iv infusion Criteria for Evaluation
Safety: adverse events, clinical laboratory test results, ECG recordings, vital signs and physical examination

[1] = single i.v. doses 0.08-6.4 mg/kg

## CC(C)C[C@H](NC(=O)[C@H](CS)NC(=O)[C@H](CS)NC(=O)[C@H](Cc1c[nH]cn1)NC(=O)CNC(=O)[C@H](CO)NC(=O)[C@H](Cc1c[nH]c2ccccc12)NC(=O)[C@H](Cc1c[nH]cn1)NC(=O)[C@H](C)N)C(=O)O [F991] (H-AHWSGHCCL-OH)
I.V. single rising doses up to 6.4 mg/kg
  safety and tolerability: safe and well tolerated
[1]
  SAEs during the study: no SAEs
  clinical laboratory data, vital signs, ECG and physical examination: no clinically significant abnormalities
  correlation between dose and number, frequency and intensity of AEs: No correlation
  most frequently reported AEs for volunteers on active drug: eye disorders
